Results published in patent publication US10617680B2 (CELGENE QUANTICEL RESEARCH, INC., priority 2017, dated 2020).

What follows are molecules tested against CBP (Homo sapiens (Human), UniProt Q92793) (assay: In vitro CBP inhibition (AlphaScreen, biotinylated H4-tetraacetyl peptide)). Conditions: not given.
Format: binding
Description: The CBP-inhibitory activity of the compounds described herein was determined by calculating the IC50. More specifically, CBP inhibitor activity was assayed as follows: CBP was cloned and expressed in E. coli as His-tag protein and purified by Nickel affinity and gel-filtration chromatography. […] CBP binding and inhibition is assessed by monitoring the interaction of biotinylated H4-tetraacetyl peptide (AnaSpec, H4K5/8/12/16(Ac), biotin-labeled) with the target using the AlphaScreen technology (Perkin Elmer). In a 384-well ProxiPlate CBP (50 nM final) was combined with peptide (20 nM final) in 50 mM HEPES (pH 7.3), 10 mM NaCl, 0.25 mM TCEP, 0.1% (w/v) BSA, and 0.005% (w/v) Brij-35 either in the presence of DMSO (final 0.4% DMSO) or compound dilution series in DMSO. After 20 min incubation at room temp, Alpha-streptavidin donor beads and Nickel Chelate acceptor beads were added to a final concentration of 5 μg/mL.
The ability of the compounds disclosed herein to inhibit CBP activity was quantified and the respective IC50 value determined.

Chain of CBP (Q92793 1081-1197): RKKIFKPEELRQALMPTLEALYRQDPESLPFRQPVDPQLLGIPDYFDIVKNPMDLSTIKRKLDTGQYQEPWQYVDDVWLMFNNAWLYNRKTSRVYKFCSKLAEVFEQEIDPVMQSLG

Row | Compound | IC50
1 | Cn1cc(-c2cnn(Cc3ccccc3)c2)ccc1=O [Example 1, 5-(1-benzyl-1H-pyrazol-4-yl)-1-methylpyridin-2(1H)-one] | 500 to 5000 nM
2 | Cn1cc(-c2cnn(C(c3ccccc3)C3CC3)c2)ccc1=O (stereo not shown) [Example 2] | 500 to 5000 nM

Same assay, conditions: AlphaScreen, Table 29; read-out: CBP IC50

Row | Compound | IC50
3 | CC(=O)NC[C@@H]1CCN(c2cc(=O)n(C)cc2-c2cnn(Cc3ccccc3)c2)C1 (stereo in doubt) [Example 89, N-{1-[5-(1-benzyl-1H-pyrazol-4-yl)-1-methyl-2-oxo-1,2-dihydro-pyridin-4-yl]-pyrrolidin-3-ylmethyl}-acetamide] | < 500 nM
4 | CC(=O)NC[C@H]1CCN(c2cc(=O)n(C)cc2-c2cnn(Cc3ccccc3)c2)C1 (stereo in doubt) [Example 90, N-{1-[5-(1-benzyl-1H-pyrazol-4-yl)-1-methyl-2-oxo-1,2-dihydro-pyridin-4-yl]-pyrrolidin-3-yl-methyl}-acetamide] | 500 to 5000 nM
5 | Cn1cc(-c2cnn(Cc3ccccc3C#N)c2)ccc1=O [Example 3, 2-((4-(1-methyl-6-oxo-1,6-dihydropyridin-3-yl)-1H-pyrazol-1-yl)methyl)benzonitrile] | 500 to 5000 nM
6 | Cn1cc(-c2cnn(Cc3cccc(C#N)c3)c2)ccc1=O [Example 4, 3-((4-(1-methyl-6-oxo-1,6-dihydropyridin-3-yl)-1H-pyrazol-1-yl)methyl)benzonitrile] | 500 to 5000 nM
7 | Cn1cc(-c2cnn(Cc3ccccn3)c2)ccc1=O [Example 5, 1-methyl-5-(1-(pyridin-2-ylmethyl)-1H-pyrazol-4-yl)pyridin-2(1H)-one] | 500 to 5000 nM
8 | Cn1cc(-c2cnn(Cc3ccc(F)cc3)c2)ccc1=O [Example 6, 5-(1-(4-fluorobenzyl)-1H-pyrazol-4-yl)-1-methylpyridin-2(1H)-one] | 500 to 5000 nM
9 | Cc1cc(=O)n(C)cc1-c1cnn(Cc2ccccc2)c1 [Example 7, 5-(1-benzyl-1H-pyrazol-4-yl)-1,4-dimethyl-pyridin-2(1H)-one] | < 500 nM
10 | Cn1cc(-c2cnn(Cc3ccccc3)c2)c2ccccc2c1=O [Example 8, 4-(1-benzyl-1H-pyrazol-4-yl)-2-methyliso-quinolin-1(2H)-one] | < 500 nM
11 | Cn1cc(-c2cnn(Cc3ccccc3)c2)c2cnccc2c1=O [Example 9, 4-(1-benzyl-1H-pyrazol-4-yl)-2-methyl-2,6-naphthyridin-1(2H)-one] | < 500 nM
12 | CCn1cc(-c2cnn(Cc3ccccc3)c2)ccc1=O [Example 10, 5-(1-benzyl-1H-pyrazol-4-yl)-1-ethylpyridin-2(1H)-one] | 500 to 5000 nM
13 | Cc1cc(-c2cnn(C(C)c3cccc(C(F)F)c3)c2)cn(C)c1=O (stereo not shown) [Example 11, 5-(1-(1-(3-(difluoro-methyl)phenyl)ethyl)-1H-pyrazol-4-yl)-1,3-dimethylpyridin-2(1H)-one] | < 500 nM
14 | CC(c1ccccc1)n1cc(-c2ccc(=O)n(C)c2)cn1 (stereo not shown) [Example 12, 1-methyl-5-(1-(1-phenylethyl)-1H-pyrazol-4-yl)pyridin-2(1H)-one] | 500 to 5000 nM
15 | Cc1cc(-c2cnn(Cc3ccccc3)c2)cn(C)c1=O [Example 13, 5-(1-benzyl-1H-pyrazol-4-yl)-1,3-dimethyl-pyridin-2(1H)-one] | < 500 nM
16 | CC(c1cccc(C#N)c1)n1cc(-c2ccc(=O)n(C)c2)cn1 (stereo not shown) [Example 16, 3-(1-(4-(1-methyl-6-oxo-1,6-dihydropyridin-3-yl)-1H-pyrazol-1-yl)ethyl)benzonitrile] | 500 to 5000 nM
17 | Cc1cc(-c2cnn(C(C)c3ccccc3)c2)cn(C)c1=O (stereo not shown) [Example 17, 1,3-dimethyl-5-(1-(1-phenylethyl)-1H-pyrazol-4-yl)pyridin-2(1H)-one] | < 500 nM
18 | CC(c1ccccc1Cl)n1cc(-c2ccc(=O)n(C)c2)cn1 (stereo not shown) [Example 19, 5-(1-(1-(2-chlorophenyl)ethyl)-1H-pyrazol-4-yl)-1-methyl-pyridin-2(1H)-one] | < 500 nM

Row | Compound | IC50
19 | Cc1cccc(C(C)n2cc(-c3ccc(=O)n(C)c3)cn2)c1 (stereo not shown) [Example 20, 1-methyl-5-(1-(1-(m-tolyl)ethyl)-1H-pyrazol-4-yl)pyridin-2(1H)-one] | < 500 nM
20 | CC(c1ccccc1)n1cc(-c2cn(C)c(=O)cc2F)cn1 (stereo not shown) [Example 21, 4-fluoro-1-methyl-5-(1-(1-phenylethyl)-1H-pyrazol-4-yl) pyridin-2(1H)-one] | 500 to 5000 nM
21 | Cc1ccccc1C(C)n1cc(-c2ccc(=O)n(C)c2)cn1 (stereo not shown) [Example 22, 1-methyl-5-(1-(1-(o-tolyl)ethyl)-1H-pyrazol-4-yl)pyridin-2(1H)-one] | < 500 nM
22 | CC(c1cccc(Cl)c1)n1cc(-c2ccc(=O)n(C)c2)cn1 (stereo not shown) [Example 23, 5-(1-(1-(3-chlorophenyl)ethyl)-1H-pyrazol-4-yl)-1-methyl-pyridin-2(1H)-one] | < 500 nM
23 | CC(c1cccnc1)n1cc(-c2ccc(=O)n(C)c2)cn1 (stereo not shown) [Example 24, 1-methyl-5-(1-(1-(pyridin-3-yl)ethyl)-1H-pyrazol-4-yl)pyridin-2(1H)-one] | 500 to 5000 nM
24 | CC(c1ccc(C#N)cc1)n1cc(-c2ccc(=O)n(C)c2)cn1 (stereo not shown) [Example 25, 4-(1-(4-(1-methyl-6-oxo-1,6-dihydropyridin-3-yl)-1H-pyrazol-1-yl)ethyl)benzonitrile] | 500 to 5000 nM
25 | CC(c1ccccc1)n1cc(-c2cc(F)c(=O)n(C)c2)cn1 (stereo not shown) [Example 26, 3-fluoro-1-methyl-5-(1-(1-phenylethyl)-1H-pyrazol-4-yl) pyridin-2(1H)-one] | 500 to 5000 nM
26 | COc1ccccc1C(C)n1cc(-c2ccc(=O)n(C)c2)cn1 (stereo not shown) [Example 27, 5-(1-(1-(2-methoxy-phenyl)ethyl)-1H-pyrazol-4-yl)-1-methyl-pyridin-2(1H) one] | < 500 nM
27 | COc1cccc(C(C)n2cc(-c3ccc(=O)n(C)c3)cn2)c1 (stereo not shown) [Example 28, 5-(1-(1-(3-methoxy-phenyl)ethyl)-1H-pyrazol-4-yl)-1-methyl-pyridin-2(1H)--one] | < 500 nM
28 | CC(c1ccncc1)n1cc(-c2ccc(=O)n(C)c2)cn1 (stereo not shown) [Example 29, 1-methyl-5-(1-(1-(pyridin-4-yl)ethyl)-1H-pyrazol-4-yl)pyridin-2(1H)-one] | 500 to 5000 nM
29 | Cc1c(-c2cnn(C(C)c3ccccc3)c2)cn(C)c(=O)c1C (stereo not shown) [Example 30, 1,3,4-trimethyl-5-(1-(1-phenylethyl)-1H-pyrazol-4-yl)pyridin-2(1H)-one] | < 500 nM
30 | CC(c1ccccc1)n1cc(-c2cc(Cl)c(=O)n(C)c2)cn1 (stereo not shown) [Example 31, 3-chloro-1-methyl-5-(1-(1-phenylethyl)-1H-pyrazol-4-yl) pyridin-2(1H)-one] | < 500 nM
31 | COc1cc(-c2cnn(C(C)c3ccccc3)c2)cn(C)c1=O (stereo not shown) [Example 32, 3-methoxy-1-methyl-5-(1-(1-phenylethyl)-1H-pyrazol-4-yl) pyridin-2(1H)-one] | 500 to 5000 nM
32 | CC(c1ccccc1)n1cc(-c2cn(C)c(=O)c3c2CCC3)cn1 (stereo not shown) [Example 33, 2-methyl-4-(1-(1-phenylethyl)-1H-pyrazol-4-yl)-2,5,6,7-tetrahydro-1H-cyclopenta[c]pyridin-1-one] | < 500 nM
33 | Cc1cc(-c2cnn(C(C)c3ccccc3)c2C)cn(C)c1=O (stereo not shown) [Example 34, 1,3-dimethyl-5-(5-methyl-1-(1-phenylethyl)-1H-pyrazol-4-yl) pyridin-2(1H)-one] | < 500 nM

Same assay, conditions: CBP versus BRD4

Row | Compound | IC50 for CBP compared with BRD4 (selectivity)
34 | Cn1cc(-c2cnn(Cc3ccccc3)c2)c(-n2cccc2)cc1=O [5-(1-benzyl-1H-pyrazol-4-yl)-1-methyl-4-(1H-pyrrol-1-yl)pyridin-2(1H)-one] | lower IC50 for CBP than for BRD4
